The supplement of paper PMC10307832

Legend:
Experiment in all cases: relative viability (nuclei count vs DMSO), 5 days (fraction); higher = more cells survive
[1] = compound: C[C@]1(c2nc3c(C(N)=O)cccc3[nH]2)CCCN1 [Veliparib] + CC(C)C[C@H](NC(=O)[C@H](Cc1ccccc1)NC(=O)c1cnccn1)B(O)O [Bortezomib] (partner 0.002 µM)
Method in brief: (§1)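 Nuclei were stained with Hoechst during a one-step fixation (final 0.05% Triton X-100, 1% formaldehyde, 1 ug/ml Hoechst) carried out 5 days after dosing, then counted on 4× images. The cells, lung cancer lines in 1536-well plates, had been dosed by pin tool the day after seeding with one drug alone or a fixed anchor-drug dose plus five library-drug doses (not always all listed) in √10 steps. Relative viability is the nuclei count in treated wells divided by that in vehicle wells, and each value is the median of duplicate plates.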

[2] = compound: COC1=CC=C(C=C1)CN2C=CC3=C2C=C(C=C3)C(=O)NO + C[C@@H](Oc1cc(-c2cnn(C3CCNCC3)c2)cnc1N)c1c(Cl)ccc(F)c1Cl [Crizotinib] (partner 1 µM)
Method in brief: as §1

[3] = compound: COC1=CC=C(C=C1)CN2C=CC3=C2C=C(C=C3)C(=O)NO + CC(=O)c1c(C)c2cnc(Nc3ccc(N4CCNCC4)cn3)nc2n(C2CCCC2)c1=O [Palbociclib] (partner 0.5 µM)
Method in brief: as §1

[4] = compound: C[C@]1(c2nc3c(C(N)=O)cccc3[nH]2)CCCN1 [Veliparib] + O=C(CCCCCCC(=O)Nc1ccccc1)NO [Vorinostat] (partner 1 µM)
Method in brief: as §1

Row | Cell Line | relative viability ([1]; first compound 0.02 µM) | relative viability ([1]; first compound 0.06325 µM) | relative viability ([1]; first compound 0.2 µM) | relative viability ([1]; first compound 0.6325 µM) | relative viability ([1]; first compound 2 µM) | relative viability ([2]; first compound 0.08 µM) | relative viability ([2]; first compound 0.253 µM) | relative viability ([2]; first compound 0.8 µM) | relative viability ([2]; first compound 2.53 µM) | relative viability ([2]; first compound 8 µM) | relative viability ([3]; first compound 0.08 µM) | relative viability ([3]; first compound 0.253 µM) | relative viability ([3]; first compound 0.8 µM) | relative viability ([3]; first compound 2.53 µM) | relative viability ([3]; first compound 8 µM) | relative viability ([4]; first compound 0.02 µM) | relative viability ([4]; first compound 0.06325 µM) | relative viability ([4]; first compound 0.2 µM) | relative viability ([4]; first compound 0.6325 µM) | relative viability ([4]; first compound 2 µM)
1 | 201T | 1.09 | 1.07 | 1.06 | 1.18 | 1.08 | 1.02 | 0.999 | 1.06 | 1.08 | 0.969 | 0.338 | 0.368 | 0.371 | 0.358 | 0.365 | 0.922 | 0.954 | 0.929 | 1.16 | 0.928
2 | A549 |  |  |  |  |  |  | 0.767 | 0.855 | 0.617 | 0.63 |  |  |  |  |  |  |  |  |  | 
3 | A-427 | 0.969 | 0.936 | 0.929 | 0.99 | 0.959 |  | 0.857 | 1.03 | 0.828 | 0.884 | 0.291 |  | 0.538 | 0.494 | 0.501 | 0.813 | 0.867 | 0.867 | 0.842 | 0.934
4 | ABC-1 |  | 0.266 | 0.257 | 0.259 | 0.304 |  | 1.3 | 1.17 | 1.31 | 1.12 |  | 0.768 | 0.713 | 0.77 | 0.615 |  |  | 0.979 | 1.37 | 0.875
5 | Calu-6 | 1.1 | 0.966 | 0.926 | 1.02 | 0.859 | 0.433 | 0.759 | 0.773 | 0.894 | 0.71 |  |  |  |  |  |  |  |  |  | 
6 | EBC-1 | 0.615 | 0.539 | 0.527 | 0.479 | 0.57 |  | 0.183 | 0.201 | 0.179 | 0.181 |  |  |  |  |  |  |  |  |  | 
7 | IA-LM | 0.831 | 0.748 | 0.794 | 0.83 | 0.813 | 0.618 | 0.806 | 0.834 | 1.02 | 0.694 |  |  |  |  |  | 0.925 | 0.906 | 0.888 | 0.789 | 0.969
8 | LK-2 |  |  |  |  |  |  | 0.256 | 0.258 | 0.255 | 0.226 |  | 0.821 | 0.832 | 0.582 | 0.699 | 0.223 | 0.284 | 0.319 | 0.258 | 0.29
9 | NCI-H358 |  |  |  |  |  |  | 0.645 | 0.546 | 0.597 | 0.395 |  | 0.125 | 0.115 | 0.14 | 0.191 | 0.728 | 0.661 | 0.877 | 0.669 | 0.76
10 | NCI-H522 |  |  |  |  |  |  |  |  |  |  |  | 0.944 | 0.972 | 0.999 | 0.955 | 0.832 | 0.825 | 0.736 | 0.84 | 0.979
11 | NCI-H596 | 1.14 | 1 | 1.06 | 1.11 | 0.902 | 1.05 | 0.961 | 0.963 | 0.868 | 1.01 |  |  |  |  |  | 0.659 | 0.55 | 0.498 | 0.624 | 0.55
